Measurements: US20240139138A1, “COMPOSITION OF AND METHOD FOR TREATING INJURY AND/OR SKIN CONDITIONS” (Omeza Holdings, Inc., priority 2022, published 2024)

Key:
[1] = Solubility in anhydrous lipophilic oil composition
[2] = tested on: Methicillin Resistant Staphylococcus aureus MRSA USA300; assay: In-vitro agar well diffusion, zone of bacterial growth inhibition; format: cell-based
Method: All challenge inoculum suspensions were prepared by swabbing a 3-cm diameter area of the growth from a culture plate into 4.5 ml of sterile phosphate buffer solution (PBS). […] The concentration was confirmed using historical optical density measurements. […] Concentrations of 10^4 CFU/ml for each bacteria was tested in this study.
Three (3) plates of Tryptic soy agar with 5% sheep blood (TSAII) per treatment for each bacteria was challenged with 100 μl of each inoculum 10^4 CFU/ml (MRSA USA300 or PA27312).
Inoculums were spread around each plate using 3 mm sterile glass beads.
Three (10 mm) punch biopsies were made on all inoculated TSAII blood culture media plates and those biopsies were removed with a sterile spatula to create wells on each plate.
Approximately 150-200 μl of each treatment was placed in the well of the inoculated TSA II plates. […] Negative Control Petrolatum or Sterile PBS.
Treatments were allowed to diffuse into agar for approximately 2-3 hours at room temperature prior to incubating plates for 24 hours at 37° C.
After the incubation period, the zones of bacteria growth inhibition (if any) were measured using ImageJ 1.4lo software.
IBM SSPS Statistics Version 26 with ANOVA statistical analysis was used to determine any differences between treatments.

[3] = average of 9 wells, 10^4 CFU/ml
[4] = average of 9 wells, 10^4 CFU/ml, ImageJ area

Compound	inherent solubility in an oil [1]	zone of inhibition, comparison in words ([2]; MRSA USA300)	Average Inhition in cm2 [2, 3] [cm2]	Diameter cm (of average inhibition zone) [2, 3] [cm]	Average Inhibition Zone vs Each disk [2, 4]	Average Inhibition Zone vs disk average [2, 4]	areas of inhibition zones ([2]; mean ± spread, 10^4 CFU/ml MRSA USA300) [cm^2]
CCCCCCCCCCCC(=O)OCC(O)CO (stereo not shown) [monolaurin, glycerol monolaurate]	less than or equal to 0.6%						
C/C(=C\C(=O)OCCCCCCCCC(=O)O)C[C@@H]1OC[C@H](C[C@@H]2O[C@H]2[C@@H](C)[C@H](C)O)[C@@H](O)[C@H]1O [Mupirocin]		largest zone of inhibition	42.81	7.3849	244618.78	244618.78	42.81±0.29
